Earlier results in patent US8956592B2, “Oral care compositions” (Colgate-Palmolive Company, priority 2010, dated 2015).

System: S. mutans, F. nucleatum, V. parvula, A. naslundii, P. gingivitis
Settings: in vitro tests

Row | SMILES | bactericidal properties against representative oral bacteria
1 | CCCc1ccc(O)c(-c2ccc(O)c(CCC)c2)c1 [tetrahydrohonokiol, 3′,5-dipropylbiphenyl-2,4′-diol] | bactericidal properties
2 | CCCc1ccc(O)c(-c2cc(CCC)ccc2O)c1 [tetrahydromagnolol, 5,5′-dipropylbiphenyl-2,2′-diol] | bactericidal properties
3 | C=CCc1ccc(O)c(-c2cc(CC=C)ccc2O)c1 [magnolol] | bactericidal properties
4 | C=CCc1ccc(O)c(-c2ccc(O)c(CC=C)c2)c1 [honokiol] | bactericidal properties
